Records with an inconclusive call do not appear. Activity calls are given as the source filed them. How the calls were made is not given here.
Tested on: C. albicans CaCi-8 + fluconazole, Alamar Blue growth, 48 h
Experiment: resistant C. albicans growth inhibition with fluconazole, dose response, CaCi-8 strain, Alamar Blue fluorescence (AID 2423)

SMILES	EC50
CCOc1ccc2c(c1)C(C)=CC(C)(C)N2S(=O)(=O)c1ccc(C)cc1	> 16000 nM (inactive)
CCCC(=O)NC(=S)NNC(=O)c1ccc([N+](=O)[O-])cc1	4900 nM
Nc1nn2cc(-c3ccc(Br)cc3)nc2c2ccccc12	962 nM
Cc1nc(SCc2ccc(Cl)c(Cl)c2)ncc1C(=O)O	> 15000 nM (inactive)
CC[n+]1c(/C=C/N(C)c2ccccc2)n(-c2ccccc2)c2ccc(-c3nc4ccccc4s3)cc21	1200 nM
CC(C)NC(=S)N/N=C/c1ccc(C(C)(C)C)cc1	> 16000 nM (inactive)
O=c1cc(CSc2ccc(Cl)cc2)nc(-c2ccccn2)[nH]1	531 nM
COc1cccc(C2C(C(=O)c3cc4ccccc4o3)=C(O)C(=O)N2c2cc(C)on2)c1OC (stereo not given)	154 nM
O=C(CCl)N(c1ccc(Cl)cc1)c1c[nH]c2ccccc12	6410 nM
COc1cccc(/C=N/NC(=O)c2c(C)nc3ccc(Cl)cn23)c1O	1710 nM
O=C(N/N=C/c1cc([N+](=O)[O-])ccc1O)C1C2CCCCC21 (stereo not given)	2160 nM
Oc1c(C(Nc2cccc(C(F)(F)F)c2)c2ccncc2)ccc2cccnc12 (stereo not given)	2440 nM
CC(C)CC(=O)NC(c1cccs1)c1ccc2cccnc2c1O (stereo not given)	867 nM
CCCCCc1ccc(OCCCC[n+]2ccccc2)c(CCCCC)c1	> 16000 nM (inactive)
CCN(CC)Cc1ccc(NC(=O)c2sc3cc(Cl)ccc3c2Cl)cc1	1080 nM
COCc1cc(CN2CCN(C)CC2)c(O)c2ncccc12	6660 nM
Cc1ccc2[nH]c(=O)c(C3C(C#N)=C(N)Oc4c3ccc3cccnc43)cc2c1 (stereo not given)	971 nM
CCc1ccc(/C=C/C(=O)c2cc(Br)ccc(=O)c2O)cc1	833 nM
N#Cc1c(-c2ccc(Cl)cc2)cc(-c2ccccc2)nc1SCC(=O)O	1200 nM
CC(C)c1ccc(OCC(=O)Nc2cccc(C(=O)Nc3ccccc3C(=O)O)c2)cc1	> 15000 nM (inactive)
CCn1c(C)nc2cc(C(=O)N/N=C/c3cccc(OC)c3O)ccc21	> 16000 nM (inactive)
Cc1ccc(C2CC2C(=O)NNC(=S)Nc2cccc(Cl)c2)cc1 (stereo not given)	3320 nM

SMILES	EC50
O=C(CN1CCN(S(=O)(=O)c2ccccc2)CC1)Nc1ccc2c(c1)CCC2	10500 nM
CCCCC(=O)NC(c1ccc(N(CC)CC)cc1)c1ccc2cccnc2c1O (stereo not given)	468 nM
O=[N+]([O-])c1cc(/C=N/Nc2nc3ccccc3[nH]2)c(O)cc1O	6220 nM
COc1cccc(/C=N/NC(=O)C(=O)Nc2ccccc2OC(F)(F)C(F)F)c1O	1020 nM
COc1cccc(/C=N/Nc2nccnc2Cl)c1O	1800 nM
CCCOc1cccc(C(=O)N/N=C/c2coc3ccccc3c2=O)c1	> 15000 nM (inactive)
O=C(Nc1ccccc1N1CCOCC1)c1ccc(S(=O)(=O)NCc2ccco2)cc1	> 15000 nM (inactive)
N/C(Cc1ccc(Cl)cc1Cl)=N\OC(=O)c1ccccc1	833 nM
COc1ccc(-n2nc(C(=O)NCC(=O)N3CCN(c4ccccc4)CC3)c3ccccc3c2=O)c(OC)c1	698 nM
COC(=O)/C(=N\Nc1ccc(Cl)cc1)Sc1nnc(-c2ccc(OC)cc2)n1C	> 16000 nM (inactive)
Oc1c(C(Nc2nccs2)c2ccc(C(F)(F)F)cc2)ccc2cccnc12 (stereo not given)	601 nM
COc1ccc(-c2csc(-c3ccccc3)n2)c(OC)c1	3810 nM
CCCC(=O)NC(c1ccccc1OC)c1ccc2cccnc2c1O (stereo not given)	1040 nM
CN1CCN(CCCNC(=O)c2ccc(/C=C3\Oc4ccccc4N(Cc4ccc(Cl)cc4)C3=O)cc2)CC1	7660 nM
Cc1cc(Sc2nc(N)ncc2[N+](=O)[O-])ncn1	2150 nM
O=C1C=C(NCc2ccccc2)c2ccccc2C1=O	1860 nM
CCCCC(=O)NC(c1ccco1)c1cc(Cl)c2cccnc2c1O (stereo not given)	625 nM
Cc1ccc(C)c(S(=O)(=O)N2CCN(Cc3ccc(O)c4ncccc34)CC2)c1	2120 nM
Cc1ccc(S(=O)(=O)N(C)c2ccc(OCC(=O)Nc3nnc(C4CC4)s3)cc2)cc1	708 nM
CC[n+]1cc(C)ccc1/C=C/c1ccc(N(C)C)cc1	1410 nM
CCCCCCCSc1nc(N)cc(=O)[nH]1	5940 nM
O=C(N/N=C/c1ccccn1)c1cc(-c2ccc(Cl)cc2)nc2ccccc12	4330 nM

SMILES	EC50
CCCCCc1ccc(-c2ccc(/C=C/C(=O)O)cc2)nc1	957 nM
CC(C)C(Sc1nc(-c2ccccc2)cc(-c2ccccc2)c1C#N)C(=O)O (stereo not given)	3770 nM
CCOC(=O)c1c(-c2ccccc2)oc2ccc(OCC(O)CN(C)C)cc12 (stereo not given)	1290 nM
Cc1ccc(C)c(/C=C/C(=O)c2ccccc(=O)c2O)c1	1990 nM
CC(C)c1ccc2oc(-c3ccc(NC(=O)c4ncn[nH]4)cc3)nc2c1	> 16000 nM (inactive)
CCn1nc(/C=C/c2ccccc2)nc2c(=O)n(C)c(=O)nc1-2	323 nM
COc1ccccc1N1CCN(Cc2cc(Br)c(O)c3ncccc23)CC1	4490 nM
CC(=O)N(Cc1ccc(F)cc1)C1=C(NCc2ccccc2)C(=O)c2ccccc2C1=O	596 nM
CCOC(=O)c1c(NC(=O)CN2CCN(C(=O)c3ccco3)CC2)sc2c1CCCC2	> 15000 nM (inactive)
Cc1ccc(-n2nc(C)c3c(C)cc(=O)[nH]c32)cc1	2080 nM
O=c1cc2oc3cc(O)c(O)cc3c(-c3ccccc3[N+](=O)[O-])c-2cc1O	1520 nM
O=C(NNC1=C(C(=O)C(F)(F)F)CCC1)c1ccc(Br)cc1	790 nM
Cc1ccc(C2(c3noc(CN4CCC(c5ccncc5)CC4)n3)CCCC2)cc1	> 15000 nM (inactive)
O=C(NNC(=O)c1cc2ccccc2cc1O)Nc1ccccc1F	> 16000 nM (inactive)
O=C(c1cc(-c2ccccc2)n[nH]1)N1CCc2c([nH]c3ccccc23)C1c1ccccn1 (stereo not given)	692 nM
O=[N+]([O-])c1ccc(N2CCN(Cc3ccc([N+](=O)[O-])o3)CC2)cc1	1650 nM
CCn1cc(/C=C/c2cc[n+](C)cc2)c2ccccc21	9300 nM
CCOC(=O)c1ccccc1OCc1cc(/C=N/n2cnnc2)ccc1OC	> 15000 nM (inactive)
CCn1c(Sc2nc(C)nc3scc(-c4cccs4)c23)n[nH]c1=O	703 nM
Cc1ccc2nc(Cl)c3nnnn3c2c1	230 nM
c1ccc(-c2cccc(-c3ccccn3)n2)nc1	521 nM
CCOc1ccccc1C(=O)Nc1ccc2nc3n(c(=O)c2c1)CCCCC3	2510 nM

SMILES	EC50
COc1cccc(-n2nnnc2S(C)(=O)=O)c1	> 15000 nM (inactive)
CC(=O)c1cnc2cc(-c3cccc(Br)c3)nn2c1C	> 15000 nM (inactive)
CCCOC(=O)/C(=C\c1ccc([N+](=O)[O-])o1)NC(=O)c1ccccc1	> 16000 nM (inactive)
NC(=S)n1[nH]c(-c2ccc([N+](=O)[O-])cc2)c(N=Nc2cccc([N+](=O)[O-])c2)c1=O	2830 nM
C[C@]12CCC3[C@@H](CC[C@H]4C[C@@H](O)CC[C@]34C)C1CCC2=O (stereo not given in full)	1480 nM
CN(C)C(=O)c1cn(-c2ccccc2)nc1-c1cccs1	> 16000 nM (inactive)
O=Cc1ccc(O)c2ncccc12	1450 nM
CC1=CC2=C(OC1N(C)C)c1cccc3cccc(c13)C2=O (stereo not given)	9240 nM
O=C(Nc1nc(=O)c2ccccc2s1)c1ccc(Cl)cc1	> 15000 nM (inactive)
O=C(NC(Nc1nc2ccc([N+](=O)[O-])cc2s1)(C(F)(F)F)C(F)(F)F)c1ccccc1Cl	1040 nM
COc1cc([N+](=O)[O-])cc(/C=N/NC(=O)c2cc(-c3ccccc3)nc3ccccc23)c1O	1540 nM
CC(C)(C)c1ccc(Cc2n[nH]c(=S)[nH]c2=O)cc1	351 nM
Cc1c(CCOC(=O)C23CC4(C)CC(C)(CC(C)(C4)C2)C3)sc[n+]1CC(=O)c1ccccc1	> 15000 nM (inactive)
CN1CCc2cc3c(c4c2C1Cc1ccccc1-4)OCO3 (stereo not given)	> 15000 nM (inactive)
O=C(CNc1ccccc1F)N/N=C/C1CC=CCC1 (stereo not given)	> 16000 nM (inactive)
Cc1cc(O)ccc1NC(=S)NC(=O)c1cncc(Br)c1	727 nM
Cc1cccc(Sc2nc(-c3ccccc3)ncc2C(=O)O)c1	> 15000 nM (inactive)
Cc1cc(C)cc(OCC(=O)NNC(=S)NC(=O)C2CC2)c1	646 nM
COc1ccc2[nH]c3c(C)c4ccncc4c(C)c3c2c1	1440 nM
Cc1c(N=NC2=C(O)CC(C)(C)CC2=O)c(=O)n(-c2ccccc2)n1C	14000 nM
CSc1cnc2c(N)nc(N(C)C)nc2n1	12400 nM
Brc1ccc(CSc2nnc(-c3cnccn3)n2Cc2ccco2)cc1	2010 nM

SMILES	EC50
O=C(CNS(=O)(=O)c1ccc(Br)s1)NCC1COc2ccccc2O1 (stereo not given)	> 15000 nM (inactive)
CCOC(=O)c1sc(Nc2nc3c(OC)cccc3s2)nc1C	1950 nM
COc1ccc(NC(=O)c2cc([N+](=O)[O-])ccc2O)cc1	3920 nM
CN1CCN(CC(=O)N2CCn3c4c(c5cc(C6CCCCC6)ccc53)CCCC42)CC1 (stereo not given)	4190 nM
COc1ccc(/C=C/C(=O)N(c2ccccn2)C2CCCCC2)cc1OC	7990 nM
O=[N+]([O-])c1cc(O)c2ncccc2c1	763 nM
NC(=O)CC12CC3CC(C1)CC(CC(N)=O)(C3)C2	> 16000 nM (inactive)
O=Nc1c(-c2cccc([N+](=O)[O-])c2)nc2ncccn12	828 nM
Nc1nc(N)c2cc(Sc3ccc4ccccc4c3)ccc2n1	1180 nM
O=C(CN1C(=O)S/C(=C\c2ccccn2)C1=O)Nc1ccccc1	> 15000 nM (inactive)
Oc1c(Br)cc(Br)cc1/C=N/Nc1ccc(Cl)nn1	237 nM
Cc1cc([N+](=O)[O-])c2ccccc2[n+]1[O-]	195 nM
COc1ccc(C(=O)NNC(=S)NC(=O)c2cccc([N+](=O)[O-])c2)cc1	1800 nM
O=C(N/N=C/c1cc([N+](=O)[O-])ccc1O)C(O)(c1ccccc1)c1ccccc1	5790 nM
O=C(OCn1ncc(Cl)c(Cl)c1=O)c1ccc(F)cc1	> 16000 nM (inactive)
N#C/C(=N/Nc1ccc(OC(F)(F)F)cc1)C(N)=S	> 15000 nM (inactive)
Nc1nsc2ccccc12	> 15000 nM (inactive)
Cn1c(=O)c(C(=O)NCCc2ccccc2)c(O)c2ccccc21	13000 nM
CCC(Oc1ccccc1)C(=O)Nc1ncc([N+](=O)[O-])s1 (stereo not given)	> 16000 nM (inactive)
CC(=O)NC1CCCN(O)C(=O)/C=C(\C)CCOC(=O)C(NC(C)=O)CCCN(O)C(=O)/C=C(\C)CCOC(=O)C(NC(C)=O)CCCN(O)C(=O)/C=C(\C)CCOC1=O (stereo not given)	783 nM
CCOc1ccc2nc(N=NC3=C(O)CC(C)(C)CC3=O)sc2c1	> 16000 nM (inactive)
O=C(c1cc2c(s1)CCCCC2)N1CCN(c2ncccn2)CC1	135 nM

Reference: PubChem BioAssay AID2423 (Broad Institute, 2010)
